Assays:
Assay type in all cases: cell-based
[1] = target: HER2 (A775_G775insYVMA) expressing Ba/F3 stable cell line (Homo sapiens, UniProt P04626, DUP772-775, cells depend on it); assay: Cellular proliferation (Alamar Blue) assay, HER2 (A775_G775insYVMA) Ba/F3; details: 72 hr incubation, read-out: YVMA IC50
Protocol: (§1) Example 2: Cellular Proliferation (Alamar Blue) Assays
(§2) • 1. EGFR(D770_N771insSVD) expressing Ba/F3 stable cell line • 2. EGFR (A767_dupASV) expressing Ba/F3 stable cell line • 3. A431 cells • 4. EGFR (H773insNPH) expressing Ba/F3 stable cell line • 5. HER2 (A775_G775insYVMA) expressing Ba/F3 stable cell line
(§3) • 1. Seed cells at 5000 for A431 and 15,000 cells for Ba/F3 in 100 μL/well in complete media (for A431: DMEM with 10% FBS and for Ba/F3 cells: RPMI with 10% FBS) in • 96-well tissue culture plate. Leave outer wells without cells for background measurements. Incubate at 37 degree Celsius in 5% C02 humidified incubator for 16-18 hours. • 2. Add 0.025 ml of 5× concentration compound dilution or DMSO control. Final compound concentration range is 10-0.0005 μM prepared in 3-fold serial dilutions. Incubate for 72 hr at 37 degree Celsius in 5% CO2 humidified incubator. • 3. Add 0.0125 ml Alamar Blue™ reagent to each well with multi-channel pipette and tap gently on each side of the plate to mix. Incubate for 3 hours at 37 degree Celsius in 5% CO2 humidified incubator. • 4. Read plates on fluorescence reader (Tecan Spark Control, Device: Spark, Serial #: 1801006040) at 540 nm excitation, 590 nm emission wavelength. • 5. Data analysis was performed using XLfit 5.5.0.5.

[2] = target: EGFR (A767_dupASV) expressing Ba/F3 stable cell line (Homo sapiens, UniProt P00533, DUP767-769, cells depend on it); assay: Cellular proliferation (Alamar Blue) assay, EGFR (A767_dupASV) Ba/F3; details: 72 hr incubation, read-out: A767 IC50
Protocol: as §1, §2, §3

[3] = target: EGFR (H773insNPH) expressing Ba/F3 stable cell line (Homo sapiens, UniProt P00533, DUP771-773, cells depend on it); assay: Cellular proliferation (Alamar Blue) assay, EGFR (H773insNPH) Ba/F3; details: 72 hr incubation, read-out: NPH IC50
Protocol: as §1, §2, §3

[4] = target: EGFR(D770_N771insSVD) expressing Ba/F3 stable cell line (Homo sapiens, UniProt P00533, DUP768-770, cells depend on it); assay: Cellular proliferation (Alamar Blue) assay, EGFR(D770_N771insSVD) Ba/F3; details: 72 hr incubation, read-out: D770 IC50
Protocol: as §1, §2, §3

A431 cells = assay: Cellular proliferation (Alamar Blue) assay, A431 cells; details: Homo sapiens, A-431, 72 hr incubation
Protocol: as §1, §2, §3

EGFR (A767_dupASV) expressing Ba/F3 stable cell line, sequence (P00533 with tags, fused parts or gaps DUP767-769): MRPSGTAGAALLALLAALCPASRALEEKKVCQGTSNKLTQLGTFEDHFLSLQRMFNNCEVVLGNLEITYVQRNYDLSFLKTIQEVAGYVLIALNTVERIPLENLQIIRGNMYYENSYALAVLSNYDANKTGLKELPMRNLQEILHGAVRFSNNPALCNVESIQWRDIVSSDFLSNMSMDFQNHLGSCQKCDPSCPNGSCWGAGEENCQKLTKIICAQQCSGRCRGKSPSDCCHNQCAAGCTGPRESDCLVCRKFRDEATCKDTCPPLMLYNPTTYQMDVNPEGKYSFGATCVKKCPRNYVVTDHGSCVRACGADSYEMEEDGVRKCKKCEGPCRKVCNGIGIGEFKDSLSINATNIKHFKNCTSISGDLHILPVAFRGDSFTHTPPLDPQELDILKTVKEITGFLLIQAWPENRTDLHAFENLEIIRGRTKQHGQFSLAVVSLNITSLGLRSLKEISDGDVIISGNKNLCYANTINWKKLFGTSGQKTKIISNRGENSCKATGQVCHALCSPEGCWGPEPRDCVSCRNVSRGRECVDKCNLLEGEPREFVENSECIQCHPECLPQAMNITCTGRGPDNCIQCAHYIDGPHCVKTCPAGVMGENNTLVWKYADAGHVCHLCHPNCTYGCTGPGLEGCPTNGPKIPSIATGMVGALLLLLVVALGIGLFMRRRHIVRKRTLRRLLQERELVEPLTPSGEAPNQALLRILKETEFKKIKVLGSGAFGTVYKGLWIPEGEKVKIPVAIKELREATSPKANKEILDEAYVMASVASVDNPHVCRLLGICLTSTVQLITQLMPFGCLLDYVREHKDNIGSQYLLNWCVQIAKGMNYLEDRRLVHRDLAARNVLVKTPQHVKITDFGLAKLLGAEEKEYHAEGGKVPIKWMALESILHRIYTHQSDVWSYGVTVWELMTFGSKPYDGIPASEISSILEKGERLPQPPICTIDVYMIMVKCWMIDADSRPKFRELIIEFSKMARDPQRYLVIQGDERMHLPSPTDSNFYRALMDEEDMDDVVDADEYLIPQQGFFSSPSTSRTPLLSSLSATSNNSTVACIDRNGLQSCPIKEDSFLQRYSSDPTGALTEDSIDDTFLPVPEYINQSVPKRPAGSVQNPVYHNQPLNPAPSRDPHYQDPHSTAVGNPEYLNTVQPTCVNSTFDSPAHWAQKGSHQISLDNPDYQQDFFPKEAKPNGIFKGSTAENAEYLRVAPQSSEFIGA
EGFR(D770_N771insSVD) expressing Ba/F3 stable cell line, sequence (P00533 with tags, fused parts or gaps DUP768-770): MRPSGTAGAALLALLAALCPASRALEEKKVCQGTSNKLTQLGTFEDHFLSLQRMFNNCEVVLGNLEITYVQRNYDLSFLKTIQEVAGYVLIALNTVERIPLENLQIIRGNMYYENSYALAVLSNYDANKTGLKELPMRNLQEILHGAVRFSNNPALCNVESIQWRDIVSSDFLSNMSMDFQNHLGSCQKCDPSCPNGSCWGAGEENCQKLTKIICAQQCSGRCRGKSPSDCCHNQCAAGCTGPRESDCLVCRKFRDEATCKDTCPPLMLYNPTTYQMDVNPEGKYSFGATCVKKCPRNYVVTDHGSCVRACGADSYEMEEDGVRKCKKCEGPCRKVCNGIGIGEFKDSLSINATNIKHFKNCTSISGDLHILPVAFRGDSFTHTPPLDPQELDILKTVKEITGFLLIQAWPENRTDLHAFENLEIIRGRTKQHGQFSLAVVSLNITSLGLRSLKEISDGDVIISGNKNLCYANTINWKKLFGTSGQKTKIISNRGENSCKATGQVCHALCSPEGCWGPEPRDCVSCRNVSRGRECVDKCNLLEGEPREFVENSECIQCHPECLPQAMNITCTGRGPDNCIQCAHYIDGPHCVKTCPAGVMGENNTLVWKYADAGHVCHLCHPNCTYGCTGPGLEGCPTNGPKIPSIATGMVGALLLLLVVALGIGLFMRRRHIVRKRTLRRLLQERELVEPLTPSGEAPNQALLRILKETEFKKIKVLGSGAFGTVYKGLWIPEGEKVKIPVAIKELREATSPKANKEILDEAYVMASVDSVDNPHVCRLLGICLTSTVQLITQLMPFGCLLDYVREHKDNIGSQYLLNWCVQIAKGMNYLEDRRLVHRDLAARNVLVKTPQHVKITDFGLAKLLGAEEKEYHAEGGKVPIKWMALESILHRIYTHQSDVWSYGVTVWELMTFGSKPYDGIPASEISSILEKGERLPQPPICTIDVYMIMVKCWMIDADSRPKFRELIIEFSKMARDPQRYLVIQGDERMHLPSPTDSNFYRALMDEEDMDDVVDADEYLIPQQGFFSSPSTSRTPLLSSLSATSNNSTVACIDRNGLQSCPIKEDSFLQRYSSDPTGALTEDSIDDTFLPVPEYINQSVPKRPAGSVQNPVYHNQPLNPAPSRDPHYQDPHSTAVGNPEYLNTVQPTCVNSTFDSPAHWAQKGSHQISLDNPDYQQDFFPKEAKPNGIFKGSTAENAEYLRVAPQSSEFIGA
HER2 (A775_G775insYVMA) expressing Ba/F3 stable cell line, sequence (P04626 with tags, fused parts or gaps DUP772-775): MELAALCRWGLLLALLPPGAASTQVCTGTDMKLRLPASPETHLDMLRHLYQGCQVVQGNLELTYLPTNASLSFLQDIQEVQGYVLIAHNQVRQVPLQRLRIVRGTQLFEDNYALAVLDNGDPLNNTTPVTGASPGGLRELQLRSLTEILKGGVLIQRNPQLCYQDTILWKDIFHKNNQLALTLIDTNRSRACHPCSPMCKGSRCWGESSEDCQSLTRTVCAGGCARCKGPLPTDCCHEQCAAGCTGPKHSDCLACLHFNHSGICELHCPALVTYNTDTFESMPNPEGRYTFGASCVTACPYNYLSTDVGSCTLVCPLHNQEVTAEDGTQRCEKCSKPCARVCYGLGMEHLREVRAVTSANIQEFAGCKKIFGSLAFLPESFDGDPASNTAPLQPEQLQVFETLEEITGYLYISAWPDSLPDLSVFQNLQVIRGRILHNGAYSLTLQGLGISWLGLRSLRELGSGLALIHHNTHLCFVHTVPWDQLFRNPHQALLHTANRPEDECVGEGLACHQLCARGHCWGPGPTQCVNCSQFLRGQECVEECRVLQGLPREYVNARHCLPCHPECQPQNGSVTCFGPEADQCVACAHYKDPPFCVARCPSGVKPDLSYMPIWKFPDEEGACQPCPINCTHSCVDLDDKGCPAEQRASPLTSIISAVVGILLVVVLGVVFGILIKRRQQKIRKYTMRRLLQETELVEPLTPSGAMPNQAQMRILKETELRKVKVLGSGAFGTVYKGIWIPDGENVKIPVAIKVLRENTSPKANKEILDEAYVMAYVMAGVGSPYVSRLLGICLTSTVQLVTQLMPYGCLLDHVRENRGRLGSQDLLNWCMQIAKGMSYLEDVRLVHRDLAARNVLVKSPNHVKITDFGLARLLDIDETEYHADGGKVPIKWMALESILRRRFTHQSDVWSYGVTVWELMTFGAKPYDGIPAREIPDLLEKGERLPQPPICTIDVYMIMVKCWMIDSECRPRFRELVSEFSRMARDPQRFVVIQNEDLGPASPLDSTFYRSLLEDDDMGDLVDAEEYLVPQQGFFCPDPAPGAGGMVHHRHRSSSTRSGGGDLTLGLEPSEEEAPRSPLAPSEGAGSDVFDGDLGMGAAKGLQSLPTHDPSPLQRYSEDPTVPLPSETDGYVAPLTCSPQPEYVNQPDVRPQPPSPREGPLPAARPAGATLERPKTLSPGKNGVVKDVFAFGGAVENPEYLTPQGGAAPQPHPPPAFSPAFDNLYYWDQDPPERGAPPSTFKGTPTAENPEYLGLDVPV
EGFR (H773insNPH) expressing Ba/F3 stable cell line, sequence (P00533 with tags, fused parts or gaps DUP771-773): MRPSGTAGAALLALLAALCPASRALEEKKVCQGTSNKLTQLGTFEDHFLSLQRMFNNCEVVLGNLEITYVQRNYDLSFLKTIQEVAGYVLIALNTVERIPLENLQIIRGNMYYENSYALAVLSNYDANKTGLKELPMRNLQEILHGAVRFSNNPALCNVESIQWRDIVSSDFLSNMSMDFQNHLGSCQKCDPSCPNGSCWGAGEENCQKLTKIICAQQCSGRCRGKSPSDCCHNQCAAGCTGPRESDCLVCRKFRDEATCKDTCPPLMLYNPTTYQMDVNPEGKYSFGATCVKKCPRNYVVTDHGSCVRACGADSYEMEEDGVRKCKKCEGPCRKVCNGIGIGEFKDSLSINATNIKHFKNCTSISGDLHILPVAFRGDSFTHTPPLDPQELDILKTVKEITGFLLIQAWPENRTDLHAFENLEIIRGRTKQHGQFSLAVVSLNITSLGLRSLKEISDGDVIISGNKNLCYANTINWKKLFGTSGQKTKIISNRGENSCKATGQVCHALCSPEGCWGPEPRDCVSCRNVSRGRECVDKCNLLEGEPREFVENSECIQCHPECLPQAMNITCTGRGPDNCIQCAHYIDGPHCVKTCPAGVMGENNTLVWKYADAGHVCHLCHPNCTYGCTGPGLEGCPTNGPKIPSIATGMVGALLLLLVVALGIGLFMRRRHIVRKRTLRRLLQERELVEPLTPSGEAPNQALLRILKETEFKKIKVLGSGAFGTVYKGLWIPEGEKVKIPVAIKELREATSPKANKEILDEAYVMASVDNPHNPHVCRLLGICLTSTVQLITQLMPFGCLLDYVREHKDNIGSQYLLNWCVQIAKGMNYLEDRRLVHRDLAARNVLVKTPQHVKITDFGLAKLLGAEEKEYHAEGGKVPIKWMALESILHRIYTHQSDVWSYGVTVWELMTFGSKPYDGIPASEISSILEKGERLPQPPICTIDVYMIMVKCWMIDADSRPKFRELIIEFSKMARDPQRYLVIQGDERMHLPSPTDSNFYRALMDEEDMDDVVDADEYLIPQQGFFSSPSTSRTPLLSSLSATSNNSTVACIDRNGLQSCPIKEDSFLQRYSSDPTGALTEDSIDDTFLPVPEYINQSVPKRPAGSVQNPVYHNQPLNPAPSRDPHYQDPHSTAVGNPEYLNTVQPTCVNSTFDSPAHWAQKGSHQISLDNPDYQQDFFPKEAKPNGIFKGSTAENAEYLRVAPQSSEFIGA

| Compound | GI50 [1] [nM] | GI50 [2] [nM] | GI50 [3] [nM] | GI50 [4] [nM] | IC50 (A431 cells) [nM] |
| --- | --- | --- | --- | --- | --- |
| C=CC(=O)Nc1cccc(N2C(=O)N(c3ccccc3)CCc3cnc(Nc4cccnc4F)nc32)c1 [Compound 43, N-(3-{12-[(2-fluoropyridin-3-yl)amino]-8-oxo-7-phenyl-5H,6H,7H,8H,9H-pyrimido[4,5-d][1,3]diazepin-9-yl}phenyl)prop-2-enamide] | 1360 | 146 | 193 | 239 | > 10000 |
| C=CC(=O)Nc1cccc(N2C(=O)N(Cc3ccccc3)CCc3cnc(Nc4ccc(N5CCN(C)CC5)c(C)c4)nc32)c1 [Compound 22, N-(3-(7-benzyl-2-((3-methyl-4-(4-methylpiperazin-1-yl)phenyl)amino)-8-oxo-5,6,7,8-tetrahydro-9H-pyrimido[4,5-d][1,3]diazepin-9-yl)phenyl)acrylamide] | 9 | 33 | 41 | 31 | 25 |
| CN(C)C/C=C/C(=O)Nc1cccc(N2C(=O)N(Cc3ccccc3)CCc3cnc(Nc4cn(C)nc4Cl)nc32)c1 [Compound 1, (E)-N-(3-(7-benzyl-2-((3-chloro-1-methyl-1H-pyrazol-4-yl)amino)-8-oxo-5,6,7,8-tetrahydro-9H-pyrimido[4,5-d][1,3]diazepin-9-yl)phenyl)-4-(dimethylamino)but-2-enamide] | 31 | 54 | 86 | 105 | 132 |
| Cn1cc(Nc2ncc3c(n2)N(c2cccc(NC(=O)/C=C/CN4CCOCC4)c2)C(=O)N(Cc2ccccc2)CC3)c(Cl)n1 [Compound 10, (E)-N-(3-(7-benzyl-2-((3-chloro-1-methyl-1H-pyrazol-4-yl)amino)-8-oxo-5,6,7,8-tetrahydro-9H-pyrimido[4,5-d][1,3]diazepin-9-yl)phenyl)-4-morpholinobut-2-enamide] | 20 | 43 | 94 | 47 | 8 |
| C=CC(=O)Nc1cccc(N2C(=O)N(Cc3ccccc3)CCc3cnc(Nc4ccc(N5CCOCC5)nc4)nc32)c1 [Compound 19, N-(3-(7-benzyl-2-((6-morpholinopyridin-3-yl)amino)-8-oxo-5,6,7,8-tetrahydro-9H-pyrimido[4,5-d][1,3]diazepin-9-yl)phenyl)acrylamide] | 24 | 10 | 25 | 14 | > 10000 |
| COC/C=C/C(=O)Nc1cccc(N2C(=O)N(Cc3ccccc3)CCc3cnc(Nc4cn(C)nc4Cl)nc32)c1 [Compound 4, (E)-N-(3-(7-benzyl-2-((3-chloro-1-methyl-1H-pyrazol-4-yl)amino)-8-oxo-5,6,7,8-tetrahydro-9H-pyrimido[4,5-d][1,3]diazepin-9-yl)phenyl)-4-methoxybut-2-enamide] | 125 | 104 | 103 | 98 | > 10000 |
| C=CC(=O)Nc1cccc(N2C(=O)N(c3ccccc3)CCc3cnc(Nc4cn(C)nc4Cl)nc32)c1 [Compound 29, N-(3-{2-[(3-chloro-1-methyl-1H-pyrazol-4-yl)amino]-8-oxo-7-phenyl-5H,6H,7H,8H,9H-pyrimido[4,5-d][1,3]diazepin-9-yl}phenyl)prop-2-enamide] | 67 | 36 | 25 | 45 | 16 |
| C=CC(=O)Nc1cccc(N2C(=O)N(Cc3ccccc3)CCc3cnc(Nc4ccc(F)cc4)nc32)c1 [Compound 18, N-(3-(7-benzyl-2-((4-fluorophenyl)amino)-8-oxo-5,6,7,8-tetrahydro-9H-pyrimido[4,5-d][1,3]diazepin-9-yl)phenyl)acrylamide] | 31 | 55 | 152 | 45 | 64 |
| C=CC(=O)Nc1cccc(N2C(=O)N(Cc3ccccc3)CCc3cnc(Nc4cn(C5COC5)nc4Cl)nc32)c1 [Compound 28, N-(3-(7-benzyl-2-((3-chloro-1-(oxetan-3-yl)-1H-pyrazol-4-yl)amino)-8-oxo-5,6,7,8-tetrahydro-9H-pyrimido[4,5-d][1,3]diazepin-9-yl)phenyl)acrylamide] | 8 | 13 | 32 | 12 | 9 |
| C=CC(=O)Nc1cccc(N2C(=O)N(Cc3ccccc3)CCc3cnc(Nc4cn(C5CCN(C)CC5)nc4Cl)nc32)c1 [Compound 7, N-(3-(7-benzyl-2-((3-chloro-1-(1-methylpiperidin-4-yl)-1H-pyrazol-4-yl)amino)-8-oxo-5,6,7,8-tetrahydro-9H-pyrimido[4,5-d][1,3]diazepin-9-yl)phenyl)acrylamide] | 24 | 27 | 41 | 36 | 2 |
| Cn1cc(Nc2ncc3c(n2)N(c2cccc(NC(=O)/C=C/CN4CCCCC4)c2)C(=O)N(Cc2ccccc2)CC3)c(Cl)n1 [Compound 3, (E)-N-(3-(7-benzyl-2-((3-chloro-1-methyl-1H-pyrazol-4-yl)amino)-8-oxo-5,6,7,8-tetrahydro-9H-pyrimido[4,5-d][1,3]diazepin-9-yl)phenyl)-4-(piperidin-1-yl)but-2-enamide] | 31 | 42 | 108 | 48 | > 10000 |

From patent publication US20240217977A1, “DIAZEPANONE-FUSED PYRIMIDINE COMPOUNDS, COMPOSITIONS AND MEDICINAL APPLICATIONS THEREOF” (Blueprint Medicines Corporation, priority 2021, published 2024)
